Test results reported in PMC10910531.

Assays:
[1] = CRE method A: lactone/lactam formation, T3P + DIPEA, internal nucleophile (pyridine/amine) cascade; settings: the molecule shown is the open-chain precursor, CHCl3, 50.0 mM, 22.0 °C
[2] = CRE method B: lactone/thiolactone/lactam formation, EDC.HCl + HOBt + DIPEA; settings: DMF, 100.0 mM, 22.0 °C
[3] = CRE method C: cyclic carbamate/urea formation with triphosgene + Et3N; settings: the molecule shown is the open-chain precursor, CH2Cl2, 100.0 mM, 22.0 °C
[4] = CRE method E: cyclic oxalate-type (1,2-dicarbonyl) formation with oxalyl chloride + Et3N; settings: the molecule shown is the open-chain precursor, CH2Cl2, 50.0 mM, 22.0 °C
[5] = CRE method F: cyclic sulfite/sulfamidite formation with SOCl2 + DMAP; settings: the molecule shown is the open-chain precursor, CH2Cl2, 50.0 mM, 22.0 °C, 18.0 h

CC(O)Cc1cccc(-c2ccccc2CC(=O)O)n1 (stereo not shown) [8 -> 9]
ring closure, isolated yield ([1]; 10-membered ring, 0.5 h): 90%

CC(O)Cc1cccc(-c2ccccc2CC(=O)O)c1 (stereo not shown) [10 -> 11 (control)]
ring closure, isolated yield ([1]; 10-membered ring): 0%

O=C1OCCCSCc2ccccc21 [12 -> 13]
ring closure, isolated yield ([2]; from O=C(O)c1ccccc1CSCCCO, 9-membered ring, 18.0 h): 86%

O=C1OCCCCCc2ccccc21 [14 -> 15 (control)]
ring closure, isolated yield ([2]; from O=C(O)c1ccccc1CCCCCO, 9-membered ring, 18.0 h): 43%

O=C(Cl)N(CCN(CCCO)c1ccccc1)c1ccccc1 [16 -> 17]
ring closure, isolated yield ([3]; 9-membered ring, 0.5 h): 62%

O=C(Cl)N(CCCCCCO)c1ccccc1 [18 -> 19 (control)]
ring closure, isolated yield ([3]; 9-membered ring): 0%

CN(CCCO)c1ccccc1N(C)C(=O)C(=O)Cl [24 -> 25]
ring closure, isolated yield ([4]; 10-membered ring, 18.0 h): 73%

CN(C(=O)C(=O)Cl)c1ccccc1CCCCO [26 -> 27 (control)]
ring closure, isolated yield ([4]; 10-membered ring, 18.0 h): 9%

O=S(Cl)OCCCN(CCCO)Cc1ccccc1 (stereo not shown) [28 -> 29]
ring closure, isolated yield ([5]; 10-membered ring): 86%

O=S(Cl)OCCCCCCCO (stereo not shown) [30 -> 31 (control)]
ring closure, isolated yield ([5]; 10-membered ring): 8%

CNCCCN(C)CCCN(C)C(=O)C(=O)Cl [34 -> 98]
ring closure, isolated yield ([4]; 11-membered ring, 18.0 h): 71%

O=C1OCCSCc2ccccc21 [47]
ring closure, isolated yield ([2]; from O=C(O)c1ccccc1CSCCO, 8-membered ring): 88%

O=C1OCCCSCc2c(Br)cccc21 [49c]
ring closure, isolated yield ([2]; from O=C(O)c1cccc(Br)c1CSCCCO, 9-membered ring): 67%

O=C1OCCCSCc2c1cccc2[N+](=O)[O-] [50]
ring closure, isolated yield ([2]; from O=C(O)c1cccc([N+](=O)[O-])c1CSCCCO, 9-membered ring, 24.0 h): 47%

O=C1OCCCSCc2ccc(F)cc21 [S30 -> 48]
ring closure, isolated yield ([2]; from O=C(O)c1cc(F)ccc1CSCCCO, 9-membered ring, 18.0 h): 80%

CC1CCSCc2ccccc2C(=O)O1 (stereo not shown) [S43 -> 51]
ring closure, isolated yield ([2]; from CC(O)CCSCc1ccccc1C(=O)O, 9-membered ring, 16.0 h): 71%

CC(O)Cc1cncc(-c2ccccc2CC(=O)O)n1 (stereo not shown) [S52 -> 55]
ring closure, isolated yield ([1]; 10-membered ring, 0.5 h): 90%

CN1CCOC(=O)c2ccccc2-c2ccccc21 [S63 -> 60]
ring closure, isolated yield ([2]; from CN(CCO)c1ccccc1-c1ccccc1C(=O)O, 9-membered ring, 24.0 h): 72%

CN1CCCOC(=O)c2ccccc2-c2ccccc21 [S67 -> 61]
ring closure, isolated yield ([2]; from CN(CCCO)c1ccccc1-c1ccccc1C(=O)O, 10-membered ring, 24.0 h): 72%

CC1CN(C)c2ccccc2-c2ccccc2C(=O)O1 (stereo not shown) [S69 -> 62]
ring closure, isolated yield ([2]; from CC(O)CN(C)c1ccccc1-c1ccccc1C(=O)O, 9-membered ring, 24.0 h): 81%

CC1CCN(C)c2ccccc2-c2ccccc2C(=O)O1 (stereo not shown) [S71 -> 63]
ring closure, isolated yield ([2]; from CC(O)CCN(C)c1ccccc1-c1ccccc1C(=O)O, 10-membered ring, 24.0 h): 78%

C=CCNC(C)Cc1cccc(-c2ccccc2CC(=O)O)n1 (stereo not shown) [S74 -> 64 (2 steps)]
ring closure, isolated yield ([1]; 10-membered ring, 0.5 h): 75%

CC(Cc1cccc(-c2ccccc2CC(=O)O)n1)Nc1ccccc1 (stereo not shown) [S77 -> 65 (quantitative)]
ring closure, isolated yield ([1]; 10-membered ring, 0.5 h): 100%

CCNCCCN(CC)Cc1ccccc1C(=O)O [S84-derived acid -> 68 (2 steps)]
ring closure, isolated yield ([1]; 9-membered ring): 54%

O=C1SCCCSCc2ccccc21 [S86 -> 69]
ring closure, isolated yield ([2]; from O=C(O)c1ccccc1CSCCCS, 9-membered ring, 16.0 h): 65%

CN(CCCN)CCCC(=O)O [S104-derived amino acid -> 78 (2 steps)]
ring closure, isolated yield ([1]; 9-membered ring): 65%

O=C1c2ccccc2CN(Cc2ccccc2)CC2CCCCN12 (stereo not shown) [S108 -> 79]
ring closure, isolated yield ([2]; from O=C(O)c1ccccc1CN(Cc1ccccc1)CC1CCCCN1, 8-membered ring, 18.0 h): 82%

CN1CCCC(=O)Oc2ccccc21 [S114 -> 81 (2 steps)]
ring closure, isolated yield ([2]; from CN(CCCC(=O)O)c1ccccc1O, 8-membered ring, 18.0 h): 78%

CN(C(=O)Cl)c1ccccc1-c1cccc(CCO)n1 [S124 -> 84]
ring closure, isolated yield ([3]; 10-membered ring, 18.0 h): 59%

CN(c1ccccc1-c1cccc(CCO)n1)S(=O)Cl (stereo not shown) [S124 -> 86]
ring closure, isolated yield ([5]; 10-membered ring): 46%

CN(C(=O)Cl)c1ccccc1-c1cccc(CC(O)c2ccccc2)n1 (stereo not shown) [S126 -> 85 (NMR yield)]
ring closure, isolated yield ([3]; 10-membered ring, 18.0 h): 34%

CC(Cc1cccc(-c2ccccc2CO)n1)N(C(=O)C(=O)Cl)c1ccccc1 (stereo not shown) [S127 -> 87]
ring closure, isolated yield ([4]; 12-membered ring, 3.0 h): 71%

CC(O)Cc1cccc(-c2ccccc2COS(=O)Cl)n1 (stereo not shown) [S129 -> 88]
ring closure, isolated yield ([5]; 11-membered ring): 58%

O=S(Cl)OCCCN(CCCO)c1ccccc1 (stereo not shown) [S130 -> 89]
ring closure, isolated yield ([5]; 10-membered ring): 40%

O=C(Cl)N(CCCN(CCCO)c1ccccc1)c1ccccc1 [S138 -> 94]
ring closure, isolated yield ([3]; 10-membered ring, 18.0 h): 78%

O=C(Cl)C(=O)N(CCc1cccc(CCNc2ccccc2)n1)c1ccccc1 [S140 -> 96]
ring closure, isolated yield ([4]; 11-membered ring, 0.5 h): 51%

O=C(Cl)N(CCc1cccc(CCNc2ccccc2)n1)c1ccccc1 [S140 -> 97]
ring closure, isolated yield ([3]; 10-membered ring, 18.0 h): 49%
